In patent US7112680B2, “Heterocyclic hydrazones for use as anti-cancer agents” (Austria Wirtschaftsservice Gesellschaft MIT Beschrankter …, priority 2000, dated 2006):
Like-named read-outs stand apart in the source and are kept apart here. Values belong to the compound of their own block, whether it stands above or below them.

Columns and labels:
[1] = test system: HeLa (epitheloid cervix carcinoma); test: Inhibition of tumor cell growth, SRB-assay, HeLa; assay type: cell-based, human
[2] = test system: K562 (chronic myelogenous leukemia); test: Inhibition of tumor cell growth, K562; assay type: cell-based, human; conditions: 72 hours
Procedure: (§1) In order to obtain information about the growth-inhibiting action on tumor cells, the inhibition of the growth of the following human tumor cells was determined: Burkitt's lymphoma (CA 46, ATCC No. CRL 1648), CCRF-CEM (acute lymphoblastic leukemia, ATCC No. CCL 119), K562 (chronic myelogenous leukemia, ATTC No. CCL 243), HeLa (epitheloid cervix carcinoma, ATCC No. CCL 2), MEXF 276L (melanoma), HT-29 (colon adenocarcinoma, ATCC No. HTB 38), KB-3-1 (human oral epidermoid carcinoma, CTCC No. CCL 17), KB-HU hydroxyurea-resistant, multidrug-resistant KB-C1 cells (Akiyama et al, Cell. Mol Genet., 11:117–126, 1985). Burkitt's, CCRF-CEM, HeLa and MEXF 276L cells were grown in RPMI 1640, HT-29 cells in McCoy's 5A medium. The KB cell lines were grown in Dulbecco's modified Eagle's medium (4,5 g glucose/l). To the cultures of KB-C1 cells 1 μg of colchicine/ml, and to the hydroxyurea-resistant KB-HU cells 1 mM hydroxyurea was added every other week. The media were supplemented with 10% fetal calf serum (except Burkitt's lymphoma cells with 15%), 2 mM glutamine, 50 units/ml penicillin and 50 μg/ml streptomycin. Inhibition of growth of HeLa, HT-29, KB and MEXF 276L cells was detected by the SRB-assay (Skehan et al, J. Natl Cancer Inst., 82:1107–1112, 1990). 3,000 - 10,000 cells in 200 μl medium were seeded per well into 96-well plates. Dose-response curves for CCRF-CEM and Burkitt's lymphoma cells were effected by an MTT-assay (Mosman, J. Immunol Methods, 65:55–63, 1983) from Boehringer Mannheim, Mannheim, Germany. Approximately 10,000 cells per 100 μl were seeded in 96-well plates. After an initial incubation of four hours, various substance concentrations were added, and the cells were incubated at 37° C. in a water-saturated atmosphere of 95% air and 5% CO2 for 72 hours. The substances were dissolved in dimethylsulfoxide (DMSO). The concentration of DMSO was 0.5%, and this was not toxic to the cells. Subsequently, the samples were fixed, washed, and the absorption was determined by a microplate reader.

[3] = test system: human tumor grafts (cell lines of FIG. 1); test: Colony forming assay (two-layer soft agar); assay type: cell-based; conditions: for IC50 / IC90 / Mean IC70: mean values of all cell lines tested in FIG. 1, continuous exposure 3 to 6 days; for tumor type selectivity: IC70 pattern, FIG. 1
Procedure: An excellent correlation of drug response in patients and the colony forming assay has been found (Scholz et al, Eur. J. Cancer 25:901–905, 1990). Solid human tumors were grown as grafts in nude mice, removed from the latter, mechanically comminuted and subsequently incubated in an enzyme cocktail consisting of collagenase (1.2–1.8 U/ml), DNAse (375 U/ml) and hyaluronidase (29 U/ml) in RPMI 1640 medium at 37° C. for 30 minutes. The cell mixture was passed through sieves of 200 μm and 50 μm mesh size and washed thereafter twice with PBS (phosphate buffered saline). The percentage of live cells was determined using a Neubauer counting chamber and trypan blue staining.
The colony forming assay was performed according to a two-layer agar technique introduced and modified by Hamburger and Salmon (Hamburger and Salmon, Science, 197:461–463, 1977). The bottom layer consisted of 0.2 ml of Iscoves's Modified Dulbecco's medium with 20% fetal calf serum and 0.75% agar. 8×10^3 to 1.6×10^4 cells were added to the same medium and 0.4% agar and plated in 24-multiwell plates onto the base layer. One day after the plating (with continuous exposure), the substances were added in 0.2 ml medium. Each plate included six controls containing the solvent only, and the treated groups contained 6 concentrations of the substances, each in triplicate. Cultures were incubated at 37° C. and 7% CO2 in a water-saturated atmosphere for 3 to 6 days, depending on the doubling time of the tumor cells. At the time of maximum colony formation with a size of […], counts were performed with an automatic image analysis system. 24 h prior to counting, live colonies were stained with a sterile aqueous solution of 2-(4-iodophenyl)-3-(4-nitrophenyl)-5-phenyltetrazolium chloride (1 mg/ml, 100 μl/well). The results of the tests are given in FIG. 1, and in the following Table 5, respectively. […] Columns pointing towards the right show a slighter than average activity.

[4] = test system: Burkitt's lymphoma (CA 46, ATCC No. CRL 1648); test: Inhibition of tumor cell growth, MTT-assay, Burkitt's lymphoma; assay type: cell-based, human
Procedure: (§2) The KB cell lines were grown in Dulbecco's modified Eagle's medium (4,5 g glucose/l). To the cultures of KB-C1 cells 1 μg of colchicine/ml, and to the hydroxyurea-resistant KB-HU cells 1 mM hydroxyurea was added every other week. […] 3,000 - 10,000 cells in 200 μl medium were seeded per well into 96-well plates. […] Approximately 10,000 cells per 100 μl were seeded in 96-well plates. […] The substances were dissolved in dimethylsulfoxide (DMSO). […] Subsequently, the samples were fixed, washed, and the absorption was determined by a microplate reader.

[5] = test system: HT-29 (colon adenocarcinoma); test: Inhibition of tumor cell growth, SRB-assay, HT-29; assay type: cell-based, human
Procedure: as §2

[6] = test system: KB-HU hydroxyurea-resistant cells; test: Inhibition of tumor cell growth, SRB-assay, KB-HU; assay type: cell-based, human; conditions: Table 4, 72 hours, read-out: In vitro-activity against human tumor cell lines, KB-HU
Procedure: as §1

[7] = test system: multidrug-resistant KB-C1 cells; test: Inhibition of tumor cell growth, SRB-assay, KB-C1; assay type: cell-based, human; conditions: read-out: In vitro-activity against human tumor cell lines, KB-C1
Procedure: as §1

Burkitt's lymphoma cells = test: Apoptosis determination with propium iodide; assay type: cell-based, human; conditions: for induction of apoptosis (in words): tumor cells; for apoptotic cells: twice the IC50 concentrations, 48 hours, non-treated cells 1.7%
Procedure: In non-treated Burkitt's lymphoma cells, an average of 1.7% are apoptotic. […] The determination of the apoptosis was performed with propium iodide (Nicoletti et al., Rapid and Simple Method for Measuring Thymocyte Apoptosis by Propium Iodine Staining and Flow Cytometry, J. Immunol. Methods, 139, 271–279, 1991).

[8] = test system: KB-3-1 (human oral epidermoid carcinoma); test: Inhibition of tumor cell growth, SRB-assay, KB-3-1; assay type: cell-based; conditions: read-out: In vitro-activity against human tumor cell lines, KB-3-1
Procedure: as §1

[9] = Table 1, 72 hours, read-out: IC50 HeLa (converted)
[10] = Table 1, 72 hours, read-out: IC50 Burkitts
[11] = Table 1, 72 hours, read-out: IC50 HT-29 (converted)
[12] = Table 3, 72 hours, read-out: IC50 HeLa (converted)
[13] = Table 3, 72 hours, read-out: IC50 Burkitts
[14] = Table 3, 72 hours, read-out: IC50 HT-29 (converted)
[15] = Homo sapiens, HeLa, Table 3, 72 hours, read-out: IC50 HeLa (converted)
[16] = Homo sapiens, CA46, Table 3, 72 hours, read-out: IC50 Burkitts
[17] = Homo sapiens, HT-29, Table 3, 72 hours, read-out: IC50 HT-29 (converted)

IC50 [1, 9]: 530 nM | IC50 ([2]; Table 1): 1680 nM | IC50 [3]: 15 nM | IC90 [3]: 231 nM | IC50 [4, 10]: 8430 nM | IC50 [5, 11]: > 100000 nM
Compound: Cn1c(NN=C(c2ccccn2)C(C)(C)C)nc2ccccc21 [Ia-20]
Mean IC70 [3]: 0.064 µM

IC50 [1, 12]: 60 nM | IC50 ([2]; Table 3): 330 nM | IC50 [3]: 265 nM | IC90 [3]: 4300 nM | IC50 [4, 13]: 2140 nM | IC50 [5, 14]: 16100 nM
Compound: CC(=NNc1nc2ccccc2n1C(C)C)c1ccccn1 [Ic-3]
Mean IC70 [3]: 0.750 µM

IC50 [6]: 50 nM | IC50 ([1]; Table 4, 72 hours, read-out: In vitro-activity against human tumor cell lines, HeLa): 3740 nM | IC50 ([7]; Table 4, 72 hours): 810 nM | IC50 ([8]; Table 4, 72 hours): 2280 nM | IC50 ([4]; Table 4, 72 hours, read-out: In vitro-activity against human tumor cell lines, Burkitts): 2210 nM | IC50 ([5]; Table 4, 72 hours, read-out: In vitro-activity against human tumor cell lines, HT-29): 5070 nM
Compound: CC(=NNc1nc2ccccc2n1C)c1cc(N(C)C)ccn1 [Id-12]
induction of apoptosis (in words) (Burkitt's lymphoma cells): capable of inducing apoptosis | apoptotic cells (Burkitt's lymphoma cells): 60%

IC50 [1, 9]: 20 nM | IC50 ([2]; Table 1): 90 nM | IC50 [4, 10]: 1010 nM | IC50 [5, 11]: 11000 nM
Compound: CCC(=NNc1nc2ccccc2n1C)c1ccccn1 [Ia-8]

IC50 [1, 9]: 6 nM | IC50 ([2]; Table 1): 50 nM | IC50 [3]: 188 nM | IC90 [3]: 3770 nM | IC50 [5, 11]: 5580 nM
Compound: CC(C)C(=NNc1nc2ccccc2n1C)c1ccccn1 [Ia-16]
tumor type selectivity ([3]; colony forming assay): selectivity for colon, breast, ovarian, and uterus tumors | Mean IC70 [3]: 0.521 µM

More lines, now with the values behind:

Compound: CCCC(=NNc1nc2ccccc2n1C)c1ccccn1 [Ia-12]
IC50 [1, 9]: 17 nM | IC50 ([2]; Table 1): 80 nM | IC50 [3]: 246 nM | IC90 [3]: 3740 nM | Mean IC70 [3]: 0.603 µM | IC50 [4, 10]: 1780 nM | IC50 [5, 11]: 16300 nM

Compound: CCCn1c(NN=C(C)c2ccccn2)nc2ccccc21 [Ic-2]
IC50 [1, 12]: 210 nM | IC50 ([2]; Table 3): 120 nM | IC50 [4, 13]: 1280 nM | IC50 [5, 14]: 35100 nM

Compound: C=CCn1c(NN=C(C)c2ccccn2)nc2ccccc21 [Ic-5]
IC50 [1, 12]: 10 nM | IC50 ([2]; Table 3): 180 nM | tumor type selectivity ([3]; colony forming assay): selectivity for colon, breast, ovarian, and uterus tumors | IC50 [3]: 214 nM | IC90 [3]: 3330 nM | Mean IC70 [3]: 0,607 μM | IC50 [4, 13]: 980 nM | IC50 [5, 14]: 12800 nM

Compound: CC(=NNc1nc2ccccc2n1Cc1ccccc1)c1ccccn1 [Ic-8]
IC50 [1, 12]: 130 nM | IC50 ([2]; Table 3): 450 nM | IC50 [4, 13]: 3580 nM | IC50 [5, 14]: 160 nM

Compound: CC(=NNc1nc2ccccc2n1-c1ccccc1)c1ccccn1 [Ic-7, 1-(2-Pyridyl)-1-ethanone-1-(1-phenyl-1H-benzo[d]imidazol-2-yl)-hydrazone]
IC50 [1, 15]: 50 nM | IC50 ([2]; Homo sapiens, K562, Table 3): 700 nM | IC50 ([3]; Homo sapiens): 760 nM | IC90 ([3]; Homo sapiens): 6300 nM | Mean IC70 [3]: 1.741 µM | IC50 [4, 16]: 3480 nM | IC50 [5, 17]: 100 nM

Compound: CC(=NNc1nc2ccccc2n1C)c1cccc(-c2ccccc2)n1 [Id-17, 1-(6-Phenyl-2-pyridyl)-1-ethanone-1-(1-methyl-1H-benzo[d]imidazol-2-yl)-hydrazone]
IC50 ([6]; Homo sapiens): 9940 nM | IC50 ([1]; Homo sapiens, HeLa, Table 4, 72 hours, read-out: In vitro-activity against human tumor cell lines, HeLa): 2350 nM | IC50 ([7]; Homo sapiens, KBC-1, Table 4, 72 hours): 3080 nM | induction of apoptosis (in words) (Burkitt's lymphoma cells): capable of inducing apoptosis | apoptotic cells (Burkitt's lymphoma cells): 85% | IC50 ([8]; Homo sapiens, KB 3-1, Table 4, 72 hours): 3850 nM | IC50 ([4]; Homo sapiens, CA46, Table 4, 72 hours, read-out: In vitro-activity against human tumor cell lines, Burkitts): 1450 nM | IC50 ([5]; Homo sapiens, HT-29, Table 4, 72 hours, read-out: In vitro-activity against human tumor cell lines, HT-29): 3360 nM

Compound: CCn1c(NN=C(C)c2ccccn2)nc2ccccc21 [Ic-1, 1-(2-Pyridyl)-1-ethanone-1-(1-ethyl-1H-benzo[d]imidazol-2-yl)hydrazone]
IC50 [1, 15]: 190 nM | IC50 ([2]; Homo sapiens, K562, Table 3): 60 nM | IC50 [4, 16]: 680 nM | IC50 [5, 17]: 11900 nM

Compound: Cn1c(NN=C(c2ccccn2)C2CC2)nc2ccccc21 [Ia-24, E/Z-Cyclopropyl-(2-pyridyl)-methanone-(1-methyl-1H-benzo[d]imidazol-2-yl)-hydrazone]
IC50 [1, 9]: 2 nM | IC50 ([2]; Table 1): 40 nM | tumor type selectivity ([3]; colony forming assay): selectivity for colon, breast, ovarian, and uterus tumors | IC50 [3]: 138 nM | IC90 [3]: 3140 nM | Mean IC70 [3]: 0.387 µM | IC50 [5, 11]: 2880 nM

Compound: NC(=O)NO [hydroxyurea, reference compound]
in vitro anti-tumor activity against human cancer cells (in words) ([3]; colony forming assay, Table 5 / FIG. 1): far lower than that of the compounds according to the invention | apoptotic cells (Burkitt's lymphoma cells): 7.3%

Compound: Cn1c(NN=C(c2ccccc2)c2ccccn2)nc2ccccc21 [Ia-29]
IC50 [1, 9]: 9 nM | IC50 ([2]; Table 1): 60 nM | tumor type selectivity ([3]; colony forming assay): selectivity for colon, breast, ovarian, and uterus tumors | IC50 [3]: 294 nM | IC90 [3]: 4660 nM | Mean IC70 [3]: 0.741 µM | IC50 [5, 11]: 8740 nM
